Reference: the supplement of paper PMC10307832

Experiments:
Experiment in all cases: relative viability (nuclei count vs DMSO), 5 days (fraction); higher = more cells survive
[1] = compound: CC1=CC(=CC=C1)NC2=NC(=CS2)C3=CC=NC=C3
Outline: (§1)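 Following overnight incubation at 37 °C, lung cancer cell lines in 1536-well plates were pinned with five library-drug doses (not always all listed) in √10 steps on vehicle-anchored plates. The cells then spent 5 days without medium change before a combined fix, permeabilisation and Hoechst stain, 4× imaging and MetaXpress nuclear counts. Viability is the treated-to-vehicle ratio of nuclei, taken as the median across plates. Only plates with control CV below 25% and at least one doubling passed.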

[2] = compound: Cc1ccc(NC(=O)c2ccc(CN3CCN(C)CC3)cc2)cc1Nc1nc(-c2cccnc2)cs1 [Masitinib]
Outline: as §1

[3] = compound: CC1=CC(=CC=C1)NC2=NC(=CS2)C3=CC=NC=C3 + CC1(C)CCC(c2ccc(Cl)cc2)=C(CN2CCN(c3ccc(C(=O)NS(=O)(=O)c4ccc(N[C@H](CCN5CCOCC5)CSc5ccccc5)c(S(=O)(=O)C(F)(F)F)c4)cc3)CC2)C1 [Navitoclax] (partner 0.5 µM)
Outline: (§2)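 One day after seeding in 1536-well plates, lung cancer cell lines were dosed by pin tool. Dosing was either single-drug or a fixed anchor-drug dose plus five library-drug doses (not always all listed) in √10 steps. After 5 days, nuclei were stained in one fix-and-stain step and counted on 4× images, and relative viability is the nuclei count of treated wells over that of vehicle wells, given as the median of duplicate plates.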

[4] = compound: Cc1ccc(NC(=O)c2ccc(CN3CCN(C)CC3)cc2)cc1Nc1nc(-c2cccnc2)cs1 [Masitinib] + N=C(N)NC(=N)NCCc1ccccc1 [Phenformin] (partner 250 µM)
Outline: as §2

Cell Line	relative viability ([1]; 0.08 µM)	relative viability ([1]; 0.253 µM)	relative viability ([1]; 0.8 µM)	relative viability ([1]; 2.53 µM)	relative viability ([1]; 8 µM)	relative viability ([2]; 0.01 µM)	relative viability ([2]; 0.03162 µM)	relative viability ([2]; 0.1 µM)	relative viability ([2]; 0.3162 µM)	relative viability ([2]; 1 µM)	relative viability ([3]; first compound 0.08 µM)	relative viability ([3]; first compound 0.253 µM)	relative viability ([3]; first compound 0.8 µM)	relative viability ([3]; first compound 2.53 µM)	relative viability ([3]; first compound 8 µM)	relative viability ([4]; first compound 0.01 µM)	relative viability ([4]; first compound 0.03162 µM)	relative viability ([4]; first compound 0.1 µM)	relative viability ([4]; first compound 0.3162 µM)	relative viability ([4]; first compound 1 µM)
HCC-44	0.862	0.795	0.843	0.797	0.859	0.816	1.01	0.978	0.871	0.961	0.759	0.728	0.709	0.749	0.813	0.236	0.188	0.213	0.323	0.185
NCI-H647	0.816	0.87	0.797	0.869	0.76	0.926	0.959	1.07	0.983	0.873	0.799	0.887	0.938	1.1	0.942	0.549	0.521	0.526	0.57	0.584
H3255	0.916	0.931	0.984	0.934	0.903	0.743	0.986	0.766	0.784	0.906	0.573	0.304	0.561	0.533	0.496	0.388	0.277	0.374	0.315	0.407
NCI-H2085	0.99	1	0.968	0.94	0.826	0.891	0.983	1.01	1.05	0.958	0.959	1.13	1.12	1.12	0.809	0.631	0.717	0.771	0.778	0.657
NCI-H2347	0.948	0.864	0.749	0.982	0.964	0.88	0.911	1	1.02	0.966	0.613	0.751	0.599	0.83	0.632	0.391	0.402	0.333	0.374	0.327
NCI-H2170	0.901	1.01	0.945	0.942	0.824	0.843	0.933	0.983	1.04	0.991	0.631	0.575	0.538	0.545	0.426	0.354	0.396	0.386	0.386	0.378
NCI-H1944	0.871	0.912	0.958	0.765	0.809	–	0.972	–	0.799	0.955	1.03	1.01	1.05	1.01	1.01	–	0.196	–	0.196	0.186
NCI-H596	0.917	0.883	0.86	0.948	0.803	0.934	1.13	0.949	0.901	0.837	0.935	0.943	0.725	0.942	0.643	0.836	0.769	0.824	0.831	0.691
A549	0.888	0.871	0.943	0.929	0.921	0.906	0.953	1.09	1.03	0.856	1.05	1.23	1.19	1.16	0.866	0.148	0.186	0.153	0.198	0.12
NCI-H520	0.922	1.06	1.03	1.08	0.943	1.01	1.11	1.24	0.999	1.01	1.04	1.09	1.15	1.12	1.15	0.633	0.648	0.664	0.584	0.457
EKVX	0.884	0.933	0.795	0.89	0.82	0.627	0.86	0.805	0.717	0.927	0.901	0.837	0.676	0.923	0.98	–	0.213	0.235	0.214	0.199
SK-MES-1	0.815	0.82	0.804	0.922	0.861	0.923	0.945	1.04	0.881	0.99	0.94	1.02	1.1	1.06	1.08	0.657	0.691	0.686	0.659	0.512
EPLC-272H	0.856	0.793	0.813	0.732	0.958	0.887	0.788	0.962	0.866	0.815	1.02	–	0.871	–	0.979	0.317	0.212	0.285	0.305	0.257
NCI-H1650	0.715	0.841	0.962	0.687	0.434	0.798	0.979	0.871	0.885	0.89	1.07	0.938	0.935	1.13	0.811	0.419	0.334	0.447	0.371	0.362
NCI-H1395	0.765	0.734	0.898	0.729	0.766	0.882	0.965	1.04	0.967	0.85	0.984	1.1	1.04	0.971	0.993	0.42	0.442	0.473	0.47	0.424
NCI-H2228	0.838	0.948	0.784	0.91	0.726	0.998	0.808	1.16	1.04	1.06	0.866	1.07	0.622	0.969	0.655	0.347	0.302	0.335	0.398	0.215
